According to article PMC3075257, “Evaluation of Multidrug Efflux Pump Inhibitors by a New Method Using Microfluidic Channels” (PLoS ONE, 2011):

Tests used:
Assay type in all cases: cell-based
AcrAB-TolC = target: T1, AcrAB-TolC (Escherichia coli, UniProt P31224); assay: FDG influx and hydrolysis in wild-type against ΔacrB cells, microfluidic channel fluorescence microscopy; settings: 100 µg/ml FDG, LB, lactose-induced β-galactosidase, 15 min, 37°C
T1 construct: gene acrB; native chromosomal pump in intact cells, judged against ΔacrB and ΔtolC deletion mutants; with Multidrug efflux pump subunit AcrA; Outer membrane protein TolC

MexAB-OprM = target: T2, MexAB-OprM (Pseudomonas aeruginosa, UniProt P52002); assay: fluorescein efflux from E. coli cells loaded with FDG, microfluidic channel fluorescence microscopy; settings: ΔBC/pABM against vector control ΔBC/pV, 100 µg/ml FDG, LB, 15 min, 37°C; exported dye formed in the cell from FDG
T2 construct: gene mexB; full-length tripartite RND efflux pump from plasmid pMMB67HE::mexAB-oprM in E. coli MG1655 ΔacrBΔtolC, IPTG-induced; with Multidrug resistance protein MexA; Outer membrane protein OprM

MexXY-OprM = target: T3, MexXY-OprM (Pseudomonas aeruginosa, UniProt G3XCW2); assay: as above; settings: ΔBC/pXYM against vector control ΔBC/pV, 100 µg/ml FDG, LB, 15 min, 37°C; exported dye formed in the cell from FDG
T3 construct: gene mexY; full-length tripartite RND efflux pump from plasmid pMMB67HE::mexXY-oprM in E. coli MG1655 ΔacrBΔtolC, IPTG-induced; with Multidrug efflux RND transporter periplasmic adaptor subunit MexX; Outer membrane protein OprM
T3 sequence (G3XCW2 entry or part of it): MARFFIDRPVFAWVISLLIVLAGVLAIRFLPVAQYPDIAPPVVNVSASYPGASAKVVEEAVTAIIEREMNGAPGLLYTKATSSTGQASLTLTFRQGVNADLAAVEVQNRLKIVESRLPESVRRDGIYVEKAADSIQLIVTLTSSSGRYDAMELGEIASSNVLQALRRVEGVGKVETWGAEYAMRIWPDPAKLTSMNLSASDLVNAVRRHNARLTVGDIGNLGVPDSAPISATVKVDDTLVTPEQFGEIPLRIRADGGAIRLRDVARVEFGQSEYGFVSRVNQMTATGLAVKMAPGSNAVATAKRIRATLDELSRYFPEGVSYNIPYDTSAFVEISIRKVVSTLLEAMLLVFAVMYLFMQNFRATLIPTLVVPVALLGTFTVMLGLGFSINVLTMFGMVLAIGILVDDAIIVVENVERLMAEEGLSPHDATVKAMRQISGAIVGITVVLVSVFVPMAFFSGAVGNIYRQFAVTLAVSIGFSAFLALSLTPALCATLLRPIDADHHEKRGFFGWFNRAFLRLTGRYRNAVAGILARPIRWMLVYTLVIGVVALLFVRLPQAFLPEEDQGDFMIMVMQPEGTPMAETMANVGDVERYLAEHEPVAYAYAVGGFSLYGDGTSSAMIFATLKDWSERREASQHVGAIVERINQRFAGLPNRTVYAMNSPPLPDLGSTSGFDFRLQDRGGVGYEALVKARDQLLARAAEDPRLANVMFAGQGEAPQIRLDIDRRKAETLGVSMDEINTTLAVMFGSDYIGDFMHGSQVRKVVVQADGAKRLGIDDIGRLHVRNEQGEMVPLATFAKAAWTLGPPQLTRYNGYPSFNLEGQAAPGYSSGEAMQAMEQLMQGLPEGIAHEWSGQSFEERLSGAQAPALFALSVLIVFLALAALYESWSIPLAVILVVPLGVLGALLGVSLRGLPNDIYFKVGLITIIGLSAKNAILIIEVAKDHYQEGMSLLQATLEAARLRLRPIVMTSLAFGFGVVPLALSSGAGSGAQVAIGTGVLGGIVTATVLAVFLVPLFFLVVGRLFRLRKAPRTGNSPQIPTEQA
T3 sequence (G3XD21 entry or part of it, further chain): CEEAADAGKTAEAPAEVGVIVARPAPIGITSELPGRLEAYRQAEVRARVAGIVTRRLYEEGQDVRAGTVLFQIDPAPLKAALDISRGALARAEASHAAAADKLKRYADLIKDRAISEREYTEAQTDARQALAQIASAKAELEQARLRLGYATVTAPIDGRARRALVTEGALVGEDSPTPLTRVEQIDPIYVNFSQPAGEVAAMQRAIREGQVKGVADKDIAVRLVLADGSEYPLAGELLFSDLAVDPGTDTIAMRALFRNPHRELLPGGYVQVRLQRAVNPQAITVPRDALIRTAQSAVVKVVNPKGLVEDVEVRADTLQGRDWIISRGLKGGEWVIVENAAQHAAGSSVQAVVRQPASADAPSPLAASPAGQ
T3 sequence (Q51487 18-485, further chain): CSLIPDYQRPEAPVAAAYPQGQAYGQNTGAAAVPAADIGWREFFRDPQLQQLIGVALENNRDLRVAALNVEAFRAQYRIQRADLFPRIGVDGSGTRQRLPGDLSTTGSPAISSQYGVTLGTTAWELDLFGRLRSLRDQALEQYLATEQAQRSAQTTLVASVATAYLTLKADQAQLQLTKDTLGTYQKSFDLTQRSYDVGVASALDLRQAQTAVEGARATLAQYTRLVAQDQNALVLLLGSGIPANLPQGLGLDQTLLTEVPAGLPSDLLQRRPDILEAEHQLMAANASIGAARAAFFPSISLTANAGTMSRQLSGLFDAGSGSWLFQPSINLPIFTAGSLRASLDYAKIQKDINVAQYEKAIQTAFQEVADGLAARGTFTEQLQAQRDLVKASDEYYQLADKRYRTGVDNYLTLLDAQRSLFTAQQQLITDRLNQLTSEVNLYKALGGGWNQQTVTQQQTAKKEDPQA

T2 sequence (Q51487 18-485): as the sequence (Q51487 18-485, further chain) above
T2 sequence (P52477 24-383, further chain): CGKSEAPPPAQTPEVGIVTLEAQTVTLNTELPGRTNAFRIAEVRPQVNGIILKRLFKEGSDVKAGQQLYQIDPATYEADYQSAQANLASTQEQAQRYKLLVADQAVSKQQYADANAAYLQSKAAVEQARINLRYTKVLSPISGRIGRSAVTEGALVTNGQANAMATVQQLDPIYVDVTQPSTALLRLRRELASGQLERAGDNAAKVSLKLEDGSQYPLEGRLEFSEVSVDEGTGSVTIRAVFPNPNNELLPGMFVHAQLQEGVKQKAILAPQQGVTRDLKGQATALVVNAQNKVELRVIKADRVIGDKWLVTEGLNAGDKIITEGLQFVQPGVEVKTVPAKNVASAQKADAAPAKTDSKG
T2 sequence (P52002 whole entry): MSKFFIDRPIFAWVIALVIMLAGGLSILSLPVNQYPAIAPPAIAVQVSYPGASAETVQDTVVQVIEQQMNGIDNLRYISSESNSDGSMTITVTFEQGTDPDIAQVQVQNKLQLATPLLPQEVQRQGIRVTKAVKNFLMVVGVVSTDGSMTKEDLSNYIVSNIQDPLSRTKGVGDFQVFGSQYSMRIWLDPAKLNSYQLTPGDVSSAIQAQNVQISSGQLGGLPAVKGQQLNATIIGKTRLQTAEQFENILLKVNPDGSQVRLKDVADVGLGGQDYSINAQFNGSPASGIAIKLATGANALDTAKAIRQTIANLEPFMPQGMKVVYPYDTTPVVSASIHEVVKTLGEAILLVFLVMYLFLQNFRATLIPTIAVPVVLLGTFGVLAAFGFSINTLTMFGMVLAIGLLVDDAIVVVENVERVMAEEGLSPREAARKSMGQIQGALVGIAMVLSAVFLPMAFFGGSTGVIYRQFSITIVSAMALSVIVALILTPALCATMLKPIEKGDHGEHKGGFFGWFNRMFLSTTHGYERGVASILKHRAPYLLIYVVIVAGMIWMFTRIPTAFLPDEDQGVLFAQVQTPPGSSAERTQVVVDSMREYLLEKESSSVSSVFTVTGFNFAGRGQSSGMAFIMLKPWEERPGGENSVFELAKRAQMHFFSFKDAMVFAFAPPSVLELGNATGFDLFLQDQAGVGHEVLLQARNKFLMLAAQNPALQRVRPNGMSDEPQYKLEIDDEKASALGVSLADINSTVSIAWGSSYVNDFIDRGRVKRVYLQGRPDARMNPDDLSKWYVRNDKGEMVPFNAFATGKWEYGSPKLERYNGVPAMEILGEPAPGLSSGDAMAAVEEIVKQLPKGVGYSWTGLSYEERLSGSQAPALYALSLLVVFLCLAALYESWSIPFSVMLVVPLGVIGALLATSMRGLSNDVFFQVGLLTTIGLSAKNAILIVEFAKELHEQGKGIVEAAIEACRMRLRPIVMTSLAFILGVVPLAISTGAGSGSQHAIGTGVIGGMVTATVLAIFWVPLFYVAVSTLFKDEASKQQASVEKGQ

## O=C1OC2(c3ccc(O[C@@H]4O[C@H](CO)[C@H](O)[C@H](O)[C@H]4O)cc3Oc3cc(O[C@@H]4O[C@H](CO)[C@H](O)[C@H](O)[C@H]4O)ccc32)c2ccccc21 [Fluorescein-di-β-D-galactopyranoside]
AcrAB-TolC
  FDG influx and hydrolysis in wild-type against ΔacrB cells, microfluidic channel: AcrAB-TolC and the analogous RND pumps effectively prevented FDG influx in E. coli wild-type cells

## O=C1OC2(c3ccc(O)cc3Oc3cc(O)ccc32)c2ccccc21 [fluorescein]
MexAB-OprM
  fluorescein efflux from E. coli cells loaded with FDG, microfluidic channel fluo: The fluorescent medium was observed in ΔBC carrying pABM or pXYM
MexXY-OprM
  fluorescein efflux from E. coli cells loaded with FDG, microfluidic channel fluo: The fluorescent medium was observed in ΔBC carrying pABM or pXYM
